Assay results taken from patent US9840498B2, “Substituted quinazolin-4-one derivatives” (NOVARTIS AG, priority 2013, dated 2017).
pIC50: −log10 of the molar value.

Biological target: PI 3-Kinase Gamma (Homo sapiens (Human), UniProt P48736)
Experiment: Cellular U937 AKT assay for PI 3-kinase gamma
Format: cell-based
Settings: U937 cells, MIP1α-stimulated AKT phosphorylation, read-out: Cell PI3K gamma IC50
Description: The U937 monocyte cell line is maintained in a basal medium of RPMI 1640 supplemented with 10% heat inactivated FCS, 100 U/ml Penicillin, 100 ug/ml streptomycin and 2 mM L-glutamine (Invitrogen). U937 suspension culture is maintained by seeding cells at a density of 0.125×10^6 cells per ml in fresh medium every three or four days. Cells are incubated at 37° C., 5% CO2. […] Before beginning the cell manipulations described below, the MSD (Meso Scale Discovery) assay plate is blocked by addition of 150 ul/well blocking buffer supplied and incubated with shaking for a minimum of one hour at room temperature. All steps of the assay must be performed quickly, with accurately timed incubation periods and observing temperature controls where indicated. […] Falcon tube, counted and centrifuged for eight minutes at 300 g at room temperature. Supernatant is aspirated, the cell pellet resuspended and washed once in HBSS (Hank's Balanced Salt Solution) by centrifugation for eight minutes at 300 g at room temperature. The cell pellet is resuspended in HBSS to a concentration of 4×10^6 per ml, and 100 μL of cell suspension added to each well of a flat-bottomed 96-well tissue culture plate. Assay plates are incubated for 1.5 hours at 37° C., 5% CO2 to allow background AKT phosphorylation to reduce before the compound stimulation step. […] Compound concentrations at this stage are 4-times the final concentration required in the assay plate. Cells are stimulated with compound or HBSS 0.8% DMSO by direct transfer of 50 ul/well from the compound dilution plate. The assay plate containing compound-treated cells is then incubated for 30 minutes at 37° C. A standard plate layout is used for all experiments. Compound-treated cells, in addition to positive control wells (“max MIP1α”), are stimulated with 50 μL per well of 40 ng/ml MIP1α (R&D Systems catalogue number 270-LD, lyophilized stock reconstituted to 50 μg/ml with PBS 0.1% BSA). Negative control wells (“min HBSS”), are stimulated with 50 μl/well of HBSS in the absence of MIP1α. […] Cells are incubated with MIP1α for 3 minutes, at 37° C., 5% CO2. After the three minute stimulation period, the assay plate is kept ice cold at all times. Assay plates are centrifuged for 2 minutes at 300 g, 4° C. and supernatant is removed by gently inverting, and then blotting the plate on tissue. Cells are then washed by gentle addition of 150 μL/well of ice cold HBSS and centrifugation at 300 g, for 5 minutes at 4° C. Supernatant is aspirated and the plate blotted as described above. The plate is placed on ice and cells are immediately treated with 35 μL per well of ice cold lysis buffer, prepared according to the kit instructions (per assay plate, to 5 ml of Tris lysis buffer add 100 μl of 50× protease inhibitor solution and 50 μl of each 100× phosphatase inhibitor solutions I and II). Plates are incubated on ice for 20 minutes before centrifugation at 841 g for 5 minutes, 4° C. Block buffer is aspirated from the MSD plate, and the plate washed four times with 300 μl/well Tris wash buffer. 25 μL of cell lysate is then transferred from the assay plate to the washed MSD plate which is sealed and incubated at room temperature for one hour with shaking. The plate is washed four times with 300 μL per well of Tris wash buffer before addition of 25 μL per well of sulfo-tag anti-total AKT/pAKT detection antibody (60 μl of 50× antibody stock is diluted in 1 ml block buffer mixed with 2 ml wash buffer) and incubated at room temperature for one hour with shaking. The plate is washed four times with 300 μl per well of Tris wash buffer and 150 μl per well of Read buffer is added, taking care to avoid the introduction of bubbles. The plate is immediately read using an MSD SECTOR Imager 6000. Results are exported in Excel and the percentage of phosphorylated AKT is calculated using the equation: % Phosphoprotein=((2*Phospho signal)/(Phospho signal+Total signal))*100. […]

PI 3-Kinase Gamma, sequence (P48736 whole entry): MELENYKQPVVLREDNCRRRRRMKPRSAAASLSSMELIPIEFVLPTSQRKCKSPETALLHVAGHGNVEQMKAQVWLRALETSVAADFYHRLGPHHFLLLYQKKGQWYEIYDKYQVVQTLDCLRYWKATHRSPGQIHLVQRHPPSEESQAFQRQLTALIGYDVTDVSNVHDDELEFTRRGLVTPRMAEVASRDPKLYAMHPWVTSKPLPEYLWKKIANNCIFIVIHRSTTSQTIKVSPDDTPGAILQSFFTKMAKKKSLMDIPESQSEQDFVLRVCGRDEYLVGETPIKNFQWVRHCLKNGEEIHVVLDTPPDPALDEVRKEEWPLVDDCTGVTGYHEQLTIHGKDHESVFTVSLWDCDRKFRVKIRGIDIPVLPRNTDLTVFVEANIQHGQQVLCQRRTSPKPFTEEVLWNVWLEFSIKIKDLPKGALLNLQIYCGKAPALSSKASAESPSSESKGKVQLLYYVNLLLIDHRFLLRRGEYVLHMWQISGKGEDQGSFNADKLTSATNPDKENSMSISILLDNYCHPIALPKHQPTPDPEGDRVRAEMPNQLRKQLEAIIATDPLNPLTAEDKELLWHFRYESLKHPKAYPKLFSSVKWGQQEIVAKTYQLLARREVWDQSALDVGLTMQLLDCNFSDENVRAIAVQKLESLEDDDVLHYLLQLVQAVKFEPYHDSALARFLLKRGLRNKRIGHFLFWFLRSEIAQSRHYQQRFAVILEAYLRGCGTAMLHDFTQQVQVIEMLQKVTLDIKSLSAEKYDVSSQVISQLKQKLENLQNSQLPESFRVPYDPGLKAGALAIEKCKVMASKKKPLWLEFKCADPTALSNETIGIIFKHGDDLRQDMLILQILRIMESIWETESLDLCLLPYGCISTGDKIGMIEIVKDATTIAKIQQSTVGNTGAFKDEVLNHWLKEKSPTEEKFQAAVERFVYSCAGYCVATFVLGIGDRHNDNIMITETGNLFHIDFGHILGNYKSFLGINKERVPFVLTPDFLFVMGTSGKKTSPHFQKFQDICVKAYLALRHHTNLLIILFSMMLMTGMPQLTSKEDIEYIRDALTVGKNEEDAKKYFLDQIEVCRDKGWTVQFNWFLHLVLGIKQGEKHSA

| SMILES | pIC50 |
| --- | --- |
| Cc1nc(N)nc(N2C[C@@H](O)C[C@H]2c2nc3ccc(F)c(-c4cnn(C)c4)c3c(=O)n2-c2ccccc2)c1C#N [Example 1, 2-Amino-4-((2S,4S)-2-(6-fluoro-5-(1-methyl-1H-pyrazol-4-yl)-4-oxo-3-phenyl-3,4-dihydroquinazolin-2-yl)-4-hydroxypyrrolidin-1-yl)-6-methylpyrimidine-5-carbonitrile] | 7.49 |
| COc1ncc(-c2cccc3nc([C@@H]4CCCN4c4ncnc(N)c4C#N)n(-c4ccccc4)c(=O)c23)cn1 [Example 3, (S)-4-Amino-6-(2-(5-(2-methoxypyrimidin-5-yl)-4-oxo-3-phenyl-3,4-dihydroquinazolin-2-yl)pyrrolidin-1-yl)pyrimidine-5-carbonitrile] | 6.37 |
| COc1ncc(-c2cccc3nc([C@@H]4CCCN4c4nc(N)nc(C)c4C#N)n(-c4ccccc4)c(=O)c23)cn1 [Example 4, (S)-2-Amino-4-(2-(5-(2-methoxypyrimidin-5-yl)-4-oxo-3-phenyl-3,4-dihydroquinazolin-2-yl)pyrrolidin-1-yl)-6-methylpyrimidine-5-carbonitrile] | 7.40 |
| Cn1cc(-c2c(F)ccc3nc([C@@H]4CCCN4c4ncnc(N)c4C#N)n(-c4ccccc4)c(=O)c23)cn1 [Example 5, (S)-4-Amino-6-(2-(6-fluoro-5-(1-methyl-1H-pyrazol-4-yl)-4-oxo-3-phenyl-3,4-dihydroquinazolin-2-yl)pyrrolidin-1-yl)pyrimidine-5-carbonitrile] | 6.66 |
| Cc1nc(N)nc(N2CCC[C@H]2c2nc3ccc(F)c(-c4cnn(C)c4)c3c(=O)n2-c2ccccc2)c1C#N [Example 6, (S)-2-Amino-4-(2-(6-fluoro-5-(1-methyl-1H-pyrazol-4-yl)-4-oxo-3-phenyl-3,4-dihydroquinazolin-2-yl)pyrrolidin-1-yl)-6-methylpyrimidine-5-carbonitrile] | 7.39 |
| COc1ncc(-c2c(F)ccc3nc([C@@H]4C[C@H](O)CN4c4nc(N)nc(C)c4C#N)n(-c4ccccc4)c(=O)c23)cn1 [Example 7, 2-Amino-4-((2S,4S)-2-(6-fluoro-5-(2-methoxypyrimidin-5-yl)-4-oxo-3-phenyl-3,4-dihydroquinazolin-2-yl)-4-hydroxypyrrolidin-1-yl)-6-methylpyrimidine-5-carbonitrile] | 7.60 |
| Cn1cc(-c2c(F)ccc3nc([C@@H]4C[C@H](O)CN4c4ncnc(N)c4C#N)n(-c4ccccc4)c(=O)c23)cn1 [Example 8, 4-Amino-6-((2S,4S)-2-(6-fluoro-5-(1-methyl-1H-pyrazol-4-yl)-4-oxo-3-phenyl-3,4-dihydroquinazolin-2-yl)-4-hydroxypyrrolidin-1-yl) pyrimidine-5-carbonitrile] | 7.54 |
| COc1ncc(-c2c(F)ccc3nc([C@@H]4C[C@H](O)CN4c4nc(N)nc(C)c4C#N)n(-c4ccccc4)c(=O)c23)s1 [Example 9, 2-Amino-4-((2S,4S)-2-(6-fluoro-5-(2-methoxythiazol-5-yl)-4-oxo-3-phenyl-3,4-dihydroquinazolin-2-yl)-4-hydroxypyrrolidin-1-yl)-6-methylpyrimidine-5-carbonitrile] | 7.25 |
| CO[C@H]1C[C@@H](c2nc3cccc(-c4cnn(C)c4)c3c(=O)n2-c2ccccc2)N(c2nc(N)nc(C)c2C#N)C1 [Example 10, 2-Amino-4-((2S,4S)-4-methoxy-2-(5-(1-methyl-1H-pyrazol-4-yl)-4-oxo-3-phenyl-3,4-dihydroquinazolin-2-yl)pyrrolidin-1-yl)-6-methylpyrimidine-5-carbonitrile] | 7.42 |
| CO[C@H]1C[C@@H](c2nc3cccc(-c4cnn(C)c4)c3c(=O)n2-c2ccccc2)N(c2nc(N)nc3[nH]cnc23)C1 [Example 11, 2-((2S,4S)-1-(2-Amino-9H-purin-6-yl)-4-methoxypyrrolidin-2-yl)-5-(1-methyl-1H-pyrazol-4-yl)-3-phenylquinazolin-4(3H)-one] | 6.47 |
